The source of these data is US20210145811A1, “TREATMENT OF CANCER WITH EXON 14 SKIPPING MUTATION(S) OR EXON 14 SKIPPING PHENOTYPE” (Eli Lilly and Company, priority 2016, published 2021).

One data set has as its system Hs746t cells. The data set can be described thus: Cell proliferation assay (CELL TITER-GLO). The class given is cell-based. To be noted: Homo sapiens, 120 h, 5 days exposure, n=2, read-out: IC50 in vitro Hs746t cell proliferation. As for the experimental part:
Hs746t cells are seeded onto poly-D-lysine, 96-well plates, 3000 cells/well and allowed to attach overnight in a 37° C. with 5% CO2 incubator. Merestinib is serially diluted 1:3 and added to the cells in triplicate. After 120 hours, cell viability is measured with the CELL TITER-GLO® Luminescent Cell Viability Assay (Promega), following manufacturer directions. The data are analyzed with GraphPad Prism v6 software. The assay is performed in duplicate experiments.
For orientation: Cellular ATP, detected with luciferase, serves as a proxy for viable cell number.

Another data set relates to Hs746t-derived xenograft. The data set can be described thus: In vivo Hs746t xenograft model. Also noted: species or system mouse. How it is done:
(§1) Female athymic nude mice (Envigo) are used for this study. Food and water are available ad libitum. Animals are acclimated for 1 week prior to any experimental manipulation. The study is performed in accordance with AAALAC accredited institutional guidelines.
Merestinib is formulated as a solution in 10% PEG 400/90% (20% Captisol in water). Solution is freshly prepared every 7 days.
Hs746t cells are expanded in culture, harvested, and washed in Hank's Balanced Salt Solution (HBSS, GIBCO®). Approximately 5×10^6 cells in HBSS are implanted subcutaneously into the hind flank of the animal. When tumors reach an average size of 150 to 200 mm^3, the animals are randomized into groups of 7. […]
Animals are sacrificed using CO2 and cervical dislocation when tumors grew larger than 2000 mm^3.
(§2) Tumor volumes and body weight are measured bi-weekly. Statistical analysis is performed when 3 of the 7 vehicle treated animals hed been removed from the study due to tumor burden. Tumor volume is transformed to the log scale to equalize variance across time and treatment groups. The log volume data are analyzed with a two-way repeated measures analysis of variance by time and treatment using the MIXED procedures in SAS software (Version 9.3). The correlation model for the repeated measures is spatial power. Treated groups are compared to the control group at each time point. The MIXED procedure is also used separately for each treatment group to calculate adjusted means and standard errors at each time point. Both analyses account for the autocorrelation within each animal and the loss of data that occurs when animals are removed or lost before the end of the study. The adjusted means and standard errors are plotted for each treatment group versus time.
Measure tumor growth with calipers. Calculate tumor volumes by the formula Volume (mm^3)=L×W^2 (π/6) where L represents the larger diameter and W the smaller diameter. Calculate T/C % using the formula T/C %=100×ΔT/ΔC. Where ΔT=mean tumor volume of the drug-treated group on the final day of the study−mean tumor volume of the drug-treated group on the initial day of the dosing and ΔC=mean tumor volume of the control group on the final day of the study−mean tumor volume of the control group on the initial day of the dosing. Calculate changes in body weight by the formula (Weight on observation day−Weight on day 12)/Weight on Day 12×100.

In data set [1] the target is T1, phospho-MET (Y1234/1235) (Homo sapiens, UniProt P08581).
T1 construct: MKN45 cells, expressing wild-type MET; host or cells: MKN45
Kind of data set: Western blotting of phospho-MET in MKN45 cells. The class given is cell-based. The note with it: MKN45 cells (wild-type MET), 2 hours incubation, Western blot. How it is done: (§3) Hs746t cells are obtained from ATCC® (Manassas, Va.) and are maintained in DMEM Medium with L-glutamine and 10% fetal bovine serum (FBS). MKN45 cells, expressing wild-type MET, are obtained from JCRB Cell Bank (Japan) and are maintained in RPMI 1640 Medium with L-glutamine, 10% FBS, and sodium pyruvate. Cells are grown at 37° C. with 5% CO2. Cells are seeded into 6-well plates, 1 million cells/well, and incubated overnight. Cells are incubated with merestinib for 2 hours, then are lysed in radioimmunoprecipitation assay (RIPA) buffer containing protease inhibitors. Protein concentrations of cell lysates are measured with the DC™ Protein Assay (BioRad), following manufacturer directions. Lysates are electrophoresed on Novex® 4-20% Tris Glycine gels (Invitrogen), and are transferred onto polyvinylidene difluoride (PVDF) membranes. The blots are probed for total MET (clone D1C2, CELL SIGNALING TECHNOLOGY®, Cat #8198), phospho-MET (Y1234/1235, clone D26, CELL SIGNALING TECHNOLOGY®, Cat #3077), and phospho-MET (Y1003, clone 13D11, CELL SIGNALING TECHNOLOGY®, Cat #3135). Monoclonal Anti-β-Actin (clone AC-15, SIGMA-ALDRICH®, Cat #A5441) is used as a loading control. After incubating with horseradish peroxidase (HRP)-linked secondary antibodies, blots are developed with chemiluminescent substrate and imaged on a Lumi-Imager (Roche).
Background: A western blot detects proteins with antibodies after separation by electrophoresis.

Data set [2] is described as follows: Body weight and health in Hs746t xenograft study. The class given is in vivo, mouse. The note with it: groups treated with merestinib (6 or 12 mg/kg). How it is done: as §1
Hs746t cells are expanded in culture, harvested, and washed in Hank's Balanced Salt Solution (HBSS, GIBCO®). Approximately 5×10^6 cells in HBSS are implanted subcutaneously into the hind flank of the animal. When tumors reach an average size of 150 to 200 mm^3, the animals are randomized into groups of 7. Merestinib is prepared and administered via oral gavage at 6 or 12 mg/kg doses on a once daily schedule for 21 days.
as §2, with “Both analyses account for the autocorrelation within each animal and the loss of data that occurs when animals are removed or lost before the end of the study. The adjusted means and standard errors are plotted for each treatment group versus time.” left out

Data set [3] has as its target T2, phospho-MET (Y1234/1235) (Homo sapiens, UniProt P08581, DEL964-1010).
T2 construct: Western blots performed on lysates from in vitro cultured cells confirm a strong band corresponding to MET protein; host or cells: Hs746t
Kind of data set: Western blotting of phospho-MET in Hs746t cells. To be noted: Hs746t cells (MET exon 14 skipping), 2 hours incubation, Western blot. The data set is classed as cell-based. As for the experimental part:
as §3

In the case of `Cc1ccc(C(=O)Nc2ccc(Oc3cc4cnn(C)c4cc3-c3cn[nH]c3)c(F)c2)c(=O)n1-c1ccc(F)cc1` [merestinib, N-(3-Fluoro-4-(1-methyl-6-(1H-pyrazol-4-yl)-1H-indazol-5-yloxy)phenyl)-1-(4-fluorophenyl)-6-methyl-2-oxo-1,2-dihydropyridine-3-carboxamide], in the data set on Hs746t cells, the IC50 turned out to be 0.0334 µM. Further, the “tumors showing signs of regrowth (2 consecutively larger tumor volume measurements)” value in the data set with Hs746t-derived xenograft (6 mg/kg oral gavage once daily, end of study) is listed as 5 of the 7. In the data set on Hs746t-derived xenograft (6 mg/kg oral gavage once daily, end of study, p=0.033 vs vehicle), the “anti-tumor activity T/C” value turned out to be 18.3%. In the data set with Hs746t-derived xenograft (12 mg/kg oral gavage once daily, to the end of the study), the tumor regression stood at 91.8%. For the same compound, the “tumor re-growth after treatment is terminated” value with Hs746t-derived xenograft (12 mg/kg, 5 weeks after treatment terminated) is “no tumor re-growth was observed”. In addition, the “animals that are complete responders” value in the data set with Hs746t-derived xenograft (12 mg/kg, 64 days of dosing) was 6 of the 7. The “tumor re-growth during treatment (treatment resistance)” value in the data set on Hs746t-derived xenograft (12 mg/kg, within 2 months of treatment) is given as “No tumor re-growth is observed”. Besides, the “phosphorylated MET at the Y1234/1235 position” value on phospho-MET (Y1234/1235) [1] and on phospho-MET (Y1234/1235) [3] was “inhibited” each time. In data set [2], the “health issues in the animals” value is reported as “no noticeable health issues”.
